Where two headings read alike, the source gives them in different places.

What all share (test): biochemical
What all share (set-up): Eurofins KinaseProfiler full panel at Km ATP, residual kinase activity (%) relative to DMSO

Test [1] addresses T1, NEK3(h) (Homo sapiens, UniProt P51956).
T1 sequence (P51956 1-506): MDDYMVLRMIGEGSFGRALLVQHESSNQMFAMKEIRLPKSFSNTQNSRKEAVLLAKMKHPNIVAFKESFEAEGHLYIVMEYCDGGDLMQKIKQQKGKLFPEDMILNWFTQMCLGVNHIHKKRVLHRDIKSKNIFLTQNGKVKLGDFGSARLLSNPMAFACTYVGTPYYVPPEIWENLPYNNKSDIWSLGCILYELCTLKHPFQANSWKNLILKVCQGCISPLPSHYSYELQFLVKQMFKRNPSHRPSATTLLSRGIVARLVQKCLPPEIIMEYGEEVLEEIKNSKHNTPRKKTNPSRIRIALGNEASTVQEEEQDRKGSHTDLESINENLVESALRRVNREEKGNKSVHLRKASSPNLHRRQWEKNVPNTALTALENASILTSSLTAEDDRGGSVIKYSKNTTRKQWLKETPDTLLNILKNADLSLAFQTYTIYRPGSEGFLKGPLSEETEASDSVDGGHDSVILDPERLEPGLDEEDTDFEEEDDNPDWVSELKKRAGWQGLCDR
The procedure, abridged:
(§1)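 Radiometric kinase activity assays were run with ATP at Km and compounds at 10 µM, and remaining activity (%) was reported. A separate competitive binding screen measured DNA-tagged kinase displaced from immobilized active-site ligands by qPCR, giving percent kinase still bound at 10 µM compound in DMSO.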

Test [2] addresses EGFR(T790M,L858R)(h) (Homo sapiens, UniProt P00533, L858R/T790M). The procedure, abridged:
as §1

In test [3] the target is T2, PI3 Kinase (p110d/p85a)(m) (Mus musculus, UniProt O35904).
T2 construct: gene Pik3cd
The procedure, abridged: as §1

The target in test [4] is CDK4/cyclinD3(h) (Homo sapiens, UniProt P11802). A digest of the protocol:
as §1

Test [5] addresses GRK5(h) (Homo sapiens, UniProt P34947). A digest of the protocol:
as §1

In test [6] the target is Lck(h) (Homo sapiens, UniProt P06239). The procedure, abridged: as §1
The target in test [7] is T3, Pim-2(h) (Homo sapiens, UniProt Q9P1W9).
T3 construct: gene PIM2
A digest of the protocol: as §1

Test [8] has as its target DYRK1A(h) (Homo sapiens, UniProt Q13627). The procedure, abridged:
as §1

The target in test [9] is T4, cKit(V654A)(h) (Homo sapiens, UniProt P10721, V654A).
T4 construct: gene KIT
The procedure, abridged: as §1

In test [10] the target is T5, MRCKα(h) (Homo sapiens, UniProt Q5VT25).
T5 construct: gene CDC42BPA
A digest of the protocol: as §1

For test [11], the target named is T6, TRB2(h) (Homo sapiens, UniProt Q92519).
T6 construct: gene TRIB2
T6 sequence (Q92519 1-343): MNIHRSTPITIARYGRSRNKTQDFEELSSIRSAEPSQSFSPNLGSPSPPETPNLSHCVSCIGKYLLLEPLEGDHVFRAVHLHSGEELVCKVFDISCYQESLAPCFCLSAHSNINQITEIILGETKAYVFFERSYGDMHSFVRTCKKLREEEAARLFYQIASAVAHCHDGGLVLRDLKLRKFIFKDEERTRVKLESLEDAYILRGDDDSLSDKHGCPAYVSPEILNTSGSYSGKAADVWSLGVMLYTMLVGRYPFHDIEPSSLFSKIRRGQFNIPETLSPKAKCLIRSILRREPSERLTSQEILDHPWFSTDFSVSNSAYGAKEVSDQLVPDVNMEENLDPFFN
A digest of the protocol: as §1

Test [12] deals with LIMK2(h) (Homo sapiens, UniProt P53671). A digest of the protocol: as §1
Test [13] concerns the target T7, cKit(V560G)(h) (Homo sapiens, UniProt P10721, V560G).
T7 construct: gene KIT
A digest of the protocol:
as §1

Setting [14] is: read-out: Residual activity (%) 5at.
The mark [15] stands for this setting: read-out: Residual activity (%) 5ay.
The mark [16] stands for this setting: read-out: Residual activity (%) 5as.
[17] abbreviates: read-out: Residual activity (%) Spautin-1 5aa.

Sequence of EGFR(T790M,L858R)(h) (P00533 whole entry T790M/L858R): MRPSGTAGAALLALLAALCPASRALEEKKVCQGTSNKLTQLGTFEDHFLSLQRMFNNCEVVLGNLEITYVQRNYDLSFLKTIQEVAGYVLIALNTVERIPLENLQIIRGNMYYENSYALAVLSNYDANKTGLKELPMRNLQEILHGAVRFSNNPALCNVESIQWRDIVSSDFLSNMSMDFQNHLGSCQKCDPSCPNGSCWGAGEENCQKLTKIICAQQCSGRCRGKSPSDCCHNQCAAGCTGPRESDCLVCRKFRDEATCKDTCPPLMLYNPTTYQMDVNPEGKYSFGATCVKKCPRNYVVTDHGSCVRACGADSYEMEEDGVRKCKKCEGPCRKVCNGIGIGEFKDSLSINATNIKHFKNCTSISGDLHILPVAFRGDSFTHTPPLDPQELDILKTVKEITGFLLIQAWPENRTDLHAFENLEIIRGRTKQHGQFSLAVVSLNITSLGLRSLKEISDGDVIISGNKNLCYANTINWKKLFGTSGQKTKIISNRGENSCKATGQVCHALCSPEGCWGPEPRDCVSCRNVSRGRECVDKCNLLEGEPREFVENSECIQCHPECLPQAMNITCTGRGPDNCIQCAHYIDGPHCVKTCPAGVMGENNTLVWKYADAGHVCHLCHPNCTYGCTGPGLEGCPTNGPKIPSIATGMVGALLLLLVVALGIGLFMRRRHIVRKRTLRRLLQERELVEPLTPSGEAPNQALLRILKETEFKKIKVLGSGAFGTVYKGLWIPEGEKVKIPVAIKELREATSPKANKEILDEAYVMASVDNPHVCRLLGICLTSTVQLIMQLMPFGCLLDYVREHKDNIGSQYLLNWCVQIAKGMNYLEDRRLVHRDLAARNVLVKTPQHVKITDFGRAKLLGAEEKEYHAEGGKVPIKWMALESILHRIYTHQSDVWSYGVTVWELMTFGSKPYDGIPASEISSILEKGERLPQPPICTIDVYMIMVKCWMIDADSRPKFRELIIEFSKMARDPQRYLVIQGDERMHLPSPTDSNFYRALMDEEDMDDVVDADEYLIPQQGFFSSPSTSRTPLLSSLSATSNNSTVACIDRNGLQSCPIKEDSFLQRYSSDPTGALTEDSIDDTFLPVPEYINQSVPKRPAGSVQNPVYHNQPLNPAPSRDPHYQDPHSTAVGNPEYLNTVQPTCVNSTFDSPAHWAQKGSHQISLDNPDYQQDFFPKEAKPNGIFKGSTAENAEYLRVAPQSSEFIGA
Sequence of Lck(h) (P06239 whole entry): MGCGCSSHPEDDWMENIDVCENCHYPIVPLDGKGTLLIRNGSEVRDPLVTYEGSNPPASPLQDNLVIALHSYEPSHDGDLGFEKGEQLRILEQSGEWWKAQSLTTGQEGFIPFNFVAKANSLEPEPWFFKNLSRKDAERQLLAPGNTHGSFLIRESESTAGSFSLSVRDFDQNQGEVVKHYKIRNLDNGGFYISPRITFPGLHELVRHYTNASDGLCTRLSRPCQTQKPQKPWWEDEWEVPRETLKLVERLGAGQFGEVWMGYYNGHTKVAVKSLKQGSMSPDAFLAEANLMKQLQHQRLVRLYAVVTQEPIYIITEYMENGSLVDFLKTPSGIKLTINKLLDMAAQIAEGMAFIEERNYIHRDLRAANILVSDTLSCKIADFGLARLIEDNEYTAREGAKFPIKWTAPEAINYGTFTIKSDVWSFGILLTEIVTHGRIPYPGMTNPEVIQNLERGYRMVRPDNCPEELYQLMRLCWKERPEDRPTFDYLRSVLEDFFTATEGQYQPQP
T3 sequence (Q9P1W9 whole entry): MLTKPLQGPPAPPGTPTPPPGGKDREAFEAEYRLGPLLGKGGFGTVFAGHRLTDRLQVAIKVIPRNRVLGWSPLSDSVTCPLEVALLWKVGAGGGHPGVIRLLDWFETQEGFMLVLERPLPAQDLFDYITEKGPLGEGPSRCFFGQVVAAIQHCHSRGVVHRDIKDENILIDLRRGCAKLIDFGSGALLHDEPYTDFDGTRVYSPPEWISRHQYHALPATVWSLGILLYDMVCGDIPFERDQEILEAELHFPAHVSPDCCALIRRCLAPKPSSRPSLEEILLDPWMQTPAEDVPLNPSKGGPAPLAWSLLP
Sequence of CDK4/cyclinD3(h) (P11802 whole entry): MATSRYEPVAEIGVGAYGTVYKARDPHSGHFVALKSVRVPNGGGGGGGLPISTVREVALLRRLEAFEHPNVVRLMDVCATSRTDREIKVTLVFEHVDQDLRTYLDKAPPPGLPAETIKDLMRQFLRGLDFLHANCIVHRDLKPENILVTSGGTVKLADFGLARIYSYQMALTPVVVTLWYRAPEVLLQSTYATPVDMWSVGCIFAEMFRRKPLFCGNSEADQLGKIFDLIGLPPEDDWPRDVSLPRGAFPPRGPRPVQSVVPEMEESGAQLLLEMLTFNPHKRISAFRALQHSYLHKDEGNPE
Sequence of CDK4/cyclinD3(h) (P30281 whole entry partner): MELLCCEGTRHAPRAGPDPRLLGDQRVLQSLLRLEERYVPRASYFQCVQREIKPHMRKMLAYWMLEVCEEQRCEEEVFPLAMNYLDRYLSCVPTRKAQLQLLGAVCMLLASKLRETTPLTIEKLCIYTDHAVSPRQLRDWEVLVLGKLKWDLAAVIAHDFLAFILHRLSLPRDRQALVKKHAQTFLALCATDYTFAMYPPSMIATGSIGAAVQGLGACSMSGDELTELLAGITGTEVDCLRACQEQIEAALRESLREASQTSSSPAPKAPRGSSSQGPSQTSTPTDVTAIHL
T5 sequence (Q5VT25 whole entry): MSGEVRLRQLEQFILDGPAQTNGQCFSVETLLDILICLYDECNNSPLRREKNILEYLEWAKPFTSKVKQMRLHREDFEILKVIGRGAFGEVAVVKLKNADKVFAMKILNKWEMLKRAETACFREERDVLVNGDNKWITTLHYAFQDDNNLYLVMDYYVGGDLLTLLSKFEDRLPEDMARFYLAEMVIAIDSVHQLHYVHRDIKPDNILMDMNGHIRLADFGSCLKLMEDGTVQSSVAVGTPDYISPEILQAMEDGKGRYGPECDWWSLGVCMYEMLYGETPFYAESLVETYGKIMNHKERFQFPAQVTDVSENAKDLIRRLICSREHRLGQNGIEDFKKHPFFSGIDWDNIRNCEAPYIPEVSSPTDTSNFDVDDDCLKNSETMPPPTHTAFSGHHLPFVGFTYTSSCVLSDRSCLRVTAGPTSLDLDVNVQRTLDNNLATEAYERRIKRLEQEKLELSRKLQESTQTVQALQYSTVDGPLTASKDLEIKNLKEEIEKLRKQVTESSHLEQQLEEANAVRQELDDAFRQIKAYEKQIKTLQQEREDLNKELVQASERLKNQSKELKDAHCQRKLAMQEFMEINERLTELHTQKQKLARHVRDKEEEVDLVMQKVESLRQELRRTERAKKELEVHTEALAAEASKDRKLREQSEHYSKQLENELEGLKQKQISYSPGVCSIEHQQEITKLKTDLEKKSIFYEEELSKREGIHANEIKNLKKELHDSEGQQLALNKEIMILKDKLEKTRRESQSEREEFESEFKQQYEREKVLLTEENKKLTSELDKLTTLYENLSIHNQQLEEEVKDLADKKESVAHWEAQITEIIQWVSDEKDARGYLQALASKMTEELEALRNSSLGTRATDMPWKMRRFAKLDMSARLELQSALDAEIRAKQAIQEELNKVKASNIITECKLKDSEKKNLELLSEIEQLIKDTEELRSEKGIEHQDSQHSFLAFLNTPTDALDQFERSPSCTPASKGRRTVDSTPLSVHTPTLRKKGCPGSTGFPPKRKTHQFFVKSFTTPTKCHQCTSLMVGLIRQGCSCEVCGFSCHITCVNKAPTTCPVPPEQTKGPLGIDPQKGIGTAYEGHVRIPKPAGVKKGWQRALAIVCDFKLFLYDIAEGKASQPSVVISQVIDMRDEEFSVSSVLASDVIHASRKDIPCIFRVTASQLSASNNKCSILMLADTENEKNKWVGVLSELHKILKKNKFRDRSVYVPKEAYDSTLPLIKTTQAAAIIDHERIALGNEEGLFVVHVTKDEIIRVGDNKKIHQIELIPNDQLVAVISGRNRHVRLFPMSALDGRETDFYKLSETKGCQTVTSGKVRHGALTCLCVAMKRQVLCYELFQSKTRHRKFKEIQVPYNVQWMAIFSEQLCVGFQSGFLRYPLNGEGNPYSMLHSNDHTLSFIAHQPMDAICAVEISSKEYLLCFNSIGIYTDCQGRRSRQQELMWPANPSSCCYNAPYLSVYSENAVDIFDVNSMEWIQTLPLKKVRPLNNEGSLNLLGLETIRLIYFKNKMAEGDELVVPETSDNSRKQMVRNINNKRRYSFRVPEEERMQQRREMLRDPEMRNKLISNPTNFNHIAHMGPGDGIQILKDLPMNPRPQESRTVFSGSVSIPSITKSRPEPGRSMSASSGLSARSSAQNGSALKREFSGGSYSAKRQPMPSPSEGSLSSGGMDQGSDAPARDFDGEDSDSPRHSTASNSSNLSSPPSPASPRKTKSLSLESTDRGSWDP
Sequence of GRK5(h) (P34947 whole entry): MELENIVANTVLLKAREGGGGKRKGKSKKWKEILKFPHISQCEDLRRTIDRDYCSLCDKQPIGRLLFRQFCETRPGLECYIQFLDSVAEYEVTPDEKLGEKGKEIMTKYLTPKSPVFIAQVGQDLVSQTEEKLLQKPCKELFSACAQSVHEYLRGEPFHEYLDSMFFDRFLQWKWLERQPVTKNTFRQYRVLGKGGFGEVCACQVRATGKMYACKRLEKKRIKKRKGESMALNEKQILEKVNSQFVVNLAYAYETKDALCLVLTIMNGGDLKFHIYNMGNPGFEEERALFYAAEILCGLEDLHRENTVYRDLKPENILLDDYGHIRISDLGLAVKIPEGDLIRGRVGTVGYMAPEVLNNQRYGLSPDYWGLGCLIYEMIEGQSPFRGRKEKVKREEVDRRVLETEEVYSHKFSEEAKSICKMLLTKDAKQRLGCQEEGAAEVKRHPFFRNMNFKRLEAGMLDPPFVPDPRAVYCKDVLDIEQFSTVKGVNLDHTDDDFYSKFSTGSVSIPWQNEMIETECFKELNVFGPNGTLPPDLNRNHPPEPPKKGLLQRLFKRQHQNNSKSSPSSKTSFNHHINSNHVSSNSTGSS

As for `Fc1ccc2ncnc(NCCc3ccc(Cl)cc3)c2c1` [5at, N-[2-(4-Chlorophenyl)Ethyl]-6-Fluoro-4-Quinazolinamine], the remaining activity at 10 µM in [1] (setting [14]) amounted to 99%; in test [2] (setting [14]) it was 85%; in test [3] (setting [14]), 93%; in test [4] (setting [14]) it was 95%; in [5] (setting [14]), 96%; in test [6] (setting [14]), 82%. Also, the remaining activity at 10 µM in [7] (setting [14]) stood at 70%; in test [8] (setting [14]), 63%; in test [9] (setting [14]), 85%; in test [10] (setting [14]), 98%; in test [11] (setting [14]), 60%; in test [12] (setting [14]), 84%. Besides, the remaining activity at 10 µM in [13] (setting [14]) was determined as 90%.
`COc1ccc2ncnc(Nc3cccc(F)c3)c2c1` [5ay, N-(3-Fluorophenyl)-6-Methoxy-4-Quinazolinamine]: the remaining activity at 10 µM in test [1] (setting [15]) was found to be 87%; in test [2] (setting [15]), 69%; in [3] (setting [15]), 96%; in [4] (setting [15]), 100%; in [5] (setting [15]), 89%; in [6] (setting [15]) it was 78%. In addition, the remaining activity at 10 µM was 76% in test [7] (setting [15]); 29% in test [8] (setting [15]); 92% in test [9] (setting [15]); 87% in test [10] (setting [15]); 31% in [11] (setting [15]); 103% in [12] (setting [15]). In [13] (setting [15]), the remaining activity at 10 µM stood at 106%.
Consider `Fc1ccc(CCNc2ncnc3ccc(F)cc23)cc1` [5as, 6-Fluoro-N-[2-(4-Fluorophenyl)Ethyl]-4-Quinazolinamine], for which the remaining activity at 10 µM in [1] (setting [16]) worked out at 80%; in test [2] (setting [16]) it was 93%; in [3] (setting [16]), 93%; in [4] (setting [16]), 97%; in test [5] (setting [16]), 95%; in [6] (setting [16]), 94%. Besides, the remaining activity at 10 µM was 73% in [7] (setting [16]); 68% in test [8] (setting [16]); 85% in [9] (setting [16]); 93% in [10] (setting [16]); 65% in [11] (setting [16]); 87% in test [12] (setting [16]). Besides, the remaining activity at 10 µM in test [13] (setting [16]) amounted to 105%.
Turning to `Fc1ccc(CNc2ncnc3ccc(F)cc23)cc1` [5aa, 6-Fluoro-N-(4-fluorobenzyl)-4-Quinazolinamine], the remaining activity at 10 µM amounted to 71% in [1] (setting [17]); 96% in [2] (setting [17]); 97% in [3] (setting [17]); 101% in [4] (setting [17]); 86% in test [5] (setting [17]); 90% in [6] (setting [17]). For the same compound, the remaining activity at 10 µM in test [7] (setting [17]) was 80%; in [8] (setting [17]), 74%; in [9] (setting [17]), 112%; in test [10] (setting [17]), 91%; in test [11] (setting [17]), 69%; in [12] (setting [17]), 94%. Also, in test [13] (setting [17]), the remaining activity at 10 µM turned out to be 85%.
